Experimental data: patent US6942876B2, “Analgesic compositions comprising anti-epileptic compounds and methods of using same” (Warner-Lambert Company, priority 1997, dated 2005)

Test system: Carrageenan-induced thermal hyperalgesia
Assay: carrageenan rat footpad thermal hyperalgesia test (Hargreaves test)
Assay type: in vivo
Method: In this example, gabapentin, naproxen sodium, and the combination of gabapentin and naproxen sodium were evaluated in a standard rat carrageenan footpad thermal hyperalgesia assay. This assay utilizes an extract of seaweed (carrageenan) that, when injected into the footpad of test animals, causes a sterile inflammation, thereby lowering the pain threshold.
Male Sprague-Dawley rats (200-250 g, Sasco Laboratories) were used. Rats were group housed 5/cage on a 12-hour light:dark cycle with free access to food and water. Rats received only one dose of a drug or drug combination. All drugs were administered orally by gavage.
Dose-effect curves were first determined for (1) gabapentin by itself and (2) a prototypic NSAID (e.g., naproxen) by itself The ED50 value and 95% confidence limits of each agent was determined, as was the time to peak effect. […]
Carrageenan-induced thermal hyperalgesia: Rats were acclimated to a testing chamber whose glass floor was maintained at 25° C. Thirty minutes later, a high intensity beam of light was focused through the glass on the ventral surface of each hindpaw, and the latency to reflex withdrawal of the paw from the light beam was measured to the nearest 0.1 second. […]
Data were expressed as the mean ±SEM. […]

COc1ccc2cc([C@H](C)C(=O)O)ccc2c1 [Naproxen sodium, naproxen sodium]
anti-hyperalgesic action (PO, gabapentin 3-100 mg/kg, naproxen sodium 0.3-30 mg/kg, fixed-ratio combinations at various dosages): anti-hyperalgesic actions | ED50 (Rattus norvegicus, 2 h, single drug, oral gavage, male Sprague-Dawley rats, paw flick latency 120 min after dosing, 95% confidence limits in parentheses): 0.36 mg/kg
